Measurements: the NIST ThermoML archive (doi:10.1021/je9003383)
Numbers after ± are expanded uncertainties.

Assay: mn = molality of the nth substance listed, in mol/kg
Details: 293.15 K, 101 kPa, Liquid, Vibrating tube method

Row | mass density (m1 = 0.2628) | mass density (m1 = 0.4689) | mass density (m1 = 0.7153) | mass density (m1 = 0.9675) | mass density (m1 = 1.268) | mass density (m1 = 1.448) | Structure (SMILES) | mass density (m1 = 1.867) | mass density (m1 = 4.118) | mass density (m1 = 6.189) | mass density (m1 = 8.119) | mass density (m1 = 10.03) | mass density (m1 = 12.1)
1 | – | – | – | – | – | – | CN(CCO)CCO [N-methyldiethanolamine] + O | 1014.8 ± 1 kg/m3 | 1029.6 ± 1 kg/m3 | 1038.8 ± 1 kg/m3 | 1044.8 ± 1 kg/m3 | 1048.6 ± 1.1 kg/m3 | 1051.6 ± 1.1 kg/m3
2 | 999.1 ± 1 kg/m3 | 999.8 ± 1 kg/m3 | 1000.8 ± 1 kg/m3 | 1001.8 ± 1 kg/m3 | 1003.1 ± 1 kg/m3 | 1004 ± 1 kg/m3 | C1CNCCN1 [piperazine] + O | – | – | – | – | – | –
